Reference: US8735439B2, “Chlorin e6-folic acid conjugate, preparation method thereof, and a pharmaceutical composition for the treatment of cancer comprising the same” (Diatech Korea Co., Ltd., priority 2009, dated 2014)

Legend:
[1] = Photophysical parameters (triplet state, intercombinative conversion) of chlorin e6 conjugate; assay type: physicochemical
Protocol: Values of Δ ? and Δ ? were determined after substantially transferring of all molecules of the studied substance in excited triplet state. In such conditions, ΔD=CΔεTl, wherein C indicates the molar concentration of the substance in solution, and l indicates the length of the optical way. As the standard to estimate γ, Pd(II)-octa ethyl porphyrin (Pd (II)-OEP) was selected, for which the γ value in benzol was considered as equal to one.

[2] = system: sarcoma M-1; test: Accumulation kinetics of photosensitizer in rats with sarcoma M-1; assay type: in vivo; details: rats with sarcoma M-1, 5.0 mg/kg
Protocol: The experiments were conducted on 100 white outbred rats with subcutaneous transplantation of sarcoma M-1, 7-9 days after tumor transplant. Photosensitizers were introduced to the animals via an intravenous route, once at a dose of 2.5, 5.0 and 10.0 mg/kg in a room with a low level of light. A sterile isotonic solution of sodium chloride was used as a solvent. Follow up over the dynamics of photosensitizer accumulation in tumor and normal tissues was conducted at 30 mins, 1-5 hours, and 1-6 days after photosensitizer administration.
In tumor tissues of rats with sarcoma M-1 and normal tissues (skin of opposite haunch), the dynamics of photosensitizer accumulation was analyzed by the method of measurement of life time using computer fluorescent spectrophotometry. For this purpose, a laser-fiber spectroanalyzer “LESA-6” with a helium-neon diagnostic laser “LHN 633-25” (BIOSPEC, Moscow) was used. This allows an estimate locally of the level of photosensitizer accumulation in any organs and tissues accessible for an optical fiber probe.
For real time monitoring at every hour after administration of the drug, the distal end of a catheter was placed over the tumor and normal tissues, and the intensity of the drug accumulation was recorded on the wave length corresponding to maximum fluorescence. […]

[3] = system: Hela cells; test: Accumulation in Hela cells; assay type: cell-based; details: for concentration in Hela cells: 2×10^−5 M/l, 37° C.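 On concentration in Hela cells: measured as suspension fluorescence intensity at excitation 405 nm and emission 665 nm.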
Protocol: The cellular accumulation and the targeted delivery of the photoactive compounds were investigated using Hela cells, which is one of the numerous tumor cell types that overexpress folate receptors.
Cells were cultivated for 3 days in medium 199, and transferred to Hank's solution/medium 199 (9/1). After 3 hours, the cell were collected by trypsin treatment from the substrate and placed in Hank's solution (10^5 ? /ml). To cell suspensions, chlorin e6 conjugates were added at a concentration of 2×10^−5 M/l, and incubated at 37° C. After 1, 5, 10, 15, and 24 hours, the samples were centrifuged, the pellet was washed with the cooled Hank's solution, and transferred to Hank's solution at a concentration being equal to that in the initial suspension.

[4] = Spectral and fluorescent parameters of chlorin e6 conjugate in different systems; assay type: physicochemical
Protocol: Pigment-protein complexes have been formed by adding to the solution of human serum albumin (HAS) a specific amount of photosensitizer dissolved in the same buffer. […] Similarly, the photosensitizer was included in detergent micelle (Triton X-100, C=10^−3M).
The electronic absorption spectra of the subject solution were recorded on Specord UV-Vis. The fluorescence spectra and value of degree of fluorescence polarization (P) were recorded on an automatic spectrofluorimeter (Institute of Physics). Life time of photosensitizer fluorescence (ts) was estimated using an impulse fluorometer operating in the mode of photons counting.
The main feature of the absorption spectrum is intensive (ε=4.8 10^4 M^−1 cm^−1) Qx (0-0) band at 660 nm, which falls into the spectral window of the majority of biological tissues.
Complex formation of chlorin e6 conjugate, and HSA, liposomes or detergent micelles leads to bathochromic shift in the absorption and fluorescence spectra of pigment. However, an increase in fluorescence photoresponse (B) was observed, which correlates with the growth of life time (ts) without changing of the Kravec integral value.

[5] = system: HeLa tumor cells; test: Cytotoxicity (antiproliferative assay) in the absence of light exposure; assay type: cell-based; details: for number of HeLa cells: no light, 24 hours
Protocol: Cytotoxicity was analyzed, considering the intensity of proliferative processes in cells, photosensitizer concentration, and dose of optical power. For each point, 3 flasks with cell monolayer were used.
The monolayer culture of HeLa tumor cells was chosen and used as the cell.
The culture of HeLa tumor cells was grown in nutrient medium 199 or in nutrient medium containing hemohydrolyzate supplemented with 10% fetal bovine serum and […] of kanamycin. […]
Flasks with light-protective cover (dark cytotoxicity) were incubated at 37.5° C. for 1 hour. The cells were washed with Hank's solution 4 times. 2.0 ml of fresh nutrient medium were added, and the cells were irradiated at the temperature of melting ice for 5, 10, 15 or 20 mins by the light flux of a “METALAZ” laser medical device (wavelength: 627.8 nm, 578.2 or 510.6 nm) or “LD 680-2000” (wavelength: 670-690 nm), depending on the wavelength of maximum spectral absorption of the studied photosensitizer, at a dose of 40 J/cm^2. After 20-24 hours, the number of tumor cell was counted in Goriaev's chamber.

[γ-(6-aminohexyl)folic acid]-chlorin e6 [chlorin e6 conjugate]
Δε^T ([1]; H2O, pH 8.1): 278 dm^3 mol^−1 cm^−1
γ (photoresponse of intercombinative conversion) ([1]; H2O, pH 8.1): 0.8
τt (triplet lifetime, oxygen saturated) ([1]; H2O, pH 8.1): 2.5 μs
τt^0 (triplet lifetime, deoxygenated) ([1]; H2O, pH 8.1): 170 μs
Δε^T ([1]; HSA, H2O, pH 8.1): 798 dm^3 mol^−1 cm^−1
γ (photoresponse of intercombinative conversion) ([1]; HSA, H2O, pH 8.1): 0.82
τt (triplet lifetime, oxygen saturated) ([1]; HSA, H2O, pH 8.1): 14.7 μs
τt^0 (triplet lifetime, deoxygenated) ([1]; HSA, H2O, pH 8.1): 700 μs
Δε^T ([1]; Liposomes, H2O, pH 8.1): 251 dm^3 mol^−1 cm^−1
γ (photoresponse of intercombinative conversion) ([1]; Liposomes, H2O, pH 8.1): 0.78
τt (triplet lifetime, oxygen saturated) ([1]; Liposomes, H2O, pH 8.1): 1.4 μs
τt^0 (triplet lifetime, deoxygenated) ([1]; Liposomes, H2O, pH 8.1): 70 μs
Δε^T ([1]; Pyridine): 94 dm^3 mol^−1 cm^−1
γ (photoresponse of intercombinative conversion) ([1]; Pyridine): 0.81
τt (triplet lifetime, oxygen saturated) ([1]; Pyridine): 0.3 μs
τt^0 (triplet lifetime, deoxygenated) ([1]; Pyridine): 140 μs
τt (triplet lifetime, oxygen saturated) ([1]; Triton X-100): 2.6 μs
τt^0 (triplet lifetime, deoxygenated) ([1]; Triton X-100): 230 μs
γ (photoresponse of intercombinative conversion) ([1]; practically similar in all the systems): ≈ 0.7
time of maximum accumulation in tumor tissue [2]: 2 to 5 h
binding with cells over time ([3]; Hela cells): increases linearly over 20 hours
accumulation compared with cellular uptake of free chlorin e6 ([3]; Hela cells, after 6 hr incubation): distinctly higher
cellular uptake relative to free chlorin e6 ([3]; Hela cells, after 24 hr incubation, on average, listed as chlorin e6-folic acid conjugate): about 10 fold
concentration in Hela cells ([3]; incubation 1 hour): 0.40 relative units/10^4 cl.
concentration in Hela cells ([3]; incubation 5 hours): 1.80 relative units/10^4 cl.
concentration in Hela cells ([3]; incubation 10 hours): 2.50 relative units/10^4 cl.
concentration in Hela cells ([3]; incubation 15 hours): 12.5 relative units/10^4 cl.
concentration in Hela cells ([3]; incubation 24 hours): 15.0 relative units/10^4 cl.
l^00abs ([4]; Dimethyl sulfoxide): 661 Nm
l^00fl ([4]; Dimethyl sulfoxide): 672 nm
tS (life time of fluorescence) ([4]; Dimethyl sulfoxide): 4.6 ns
B (fluorescence photoresponse) ([4]; H2O, pH 8.1): 0.16
l^00abs ([4]; H2O, pH 8.1): 657 Nm
l^00fl ([4]; H2O, pH 8.1): 664 nm
tS (life time of fluorescence) ([4]; H2O, pH 8.1): 4.3 ns
B (fluorescence photoresponse) ([4]; HSA, pH 8.1): 0.18
l^00abs ([4]; HSA, pH 8.1): 664 Nm
l^00fl ([4]; HSA, pH 8.1): 669 nm
tS (life time of fluorescence) ([4]; HSA, pH 8.1): 5.2 ns
B (fluorescence photoresponse) ([4]; Liposomes, pH 8.1): 0.21
l^00abs ([4]; Liposomes, pH 8.1): 665 Nm
l^00fl ([4]; Liposomes, pH 8.1): 670 nm
tS (life time of fluorescence) ([4]; Liposomes, pH 8.1): 5.4 ns
l^00abs ([4]; Methanol): 662 Nm
l^00fl ([4]; Methanol): 667 nm
tS (life time of fluorescence) ([4]; Methanol): 4.8 ns
B (fluorescence photoresponse) ([4]; Pyridine): 0.18
l^00abs ([4]; Pyridine): 666 Nm
l^00fl ([4]; Pyridine): 673 nm
tS (life time of fluorescence) ([4]; Pyridine): 5.0 ns
l^00abs ([4]; Tetrahydrofuran): 667 Nm
tS (life time of fluorescence) ([4]; Tetrahydrofuran): 5.0 ns
B (fluorescence photoresponse) ([4]; Triton X-100, pH 8.1): 0.19
l^00abs ([4]; Triton X-100, pH 8.1): 665 Nm
l^00fl ([4]; Triton X-100, pH 8.1): 670 nm
tS (life time of fluorescence) ([4]; Triton X-100, pH 8.1): 5.7 ns
P (degree of fluorescence polarization) ([4]; in liposomes): 0.13
cell survival rate ([5]; Hela cells, 24 hr incubation, absence of light exposure): about 90%
number of HeLa cells ([5]; photosensitizer conc. 1 (μm)): 102.1 percentage of the control
number of HeLa cells ([5]; photosensitizer conc. 2.5 (μm)): 95.6 percentage of the control
number of HeLa cells ([5]; photosensitizer conc. 5.0 (μm)): 94.1 percentage of the control
number of HeLa cells ([5]; photosensitizer conc. 10.0 (μm)): 95.9 percentage of the control
number of HeLa cells ([5]; photosensitizer conc. 20.0 (μm)): 89.0 percentage of the control
number of HeLa cells ([5]; photosensitizer conc. 30.0 (μm)): 86.6 percentage of the control
